Where a SMILES comes first, the peptide text is derived from it. The star is where a group is joined. Cbz = O=C(OCc1ccccc1)*
What was measured:
[1] = tested on: MEK; test: Native gel / in-gel GFP fluorescence of REST (810-910)-GFP reporter peptide phosphorylation in HEK293T cells; type: cell-based, Human
Description: To interrogate this serine residue, HEK293T cells were transfected with the REST (810-910)-GFP peptide with alanine mutations at S856, S861, and/or S864 as indicated. (S856/864A is S856A/S864A with S861 unmutated; S856/861A is S856A/S861A with S864 unmutated; S861/864A is S861A/S864A with S856 unmutated). […]
Gels were treated the same as in FIG. 5C.
To monitor phosphorylation status of specific REST sites under different circumstances, a cDNA reporter construct that expresses a peptide encoding amino acids 810-to-910 of REST (FIG. 3A) was constructed. Mutant REST (810-910) cDNAs encoding alanine mutations at S861, S864 and at an adjacent site, S856 were also constructed. S856 was minimally phosphorylated in the mass spectrometric analysis described above. […] The constructs also comprise regions that encode N-terminal FLAG and C-terminal eGFP tags (FIG. 3A). These constructs were transfected into HEK cells and expressed. Extracts from the cells were resolved on native gels 24 hours after transfection. The expressed peptides were detected by in-gel GFP fluorescence.
The phosphorylation state of the expressed REST peptides can be visualized by differential migration in native gels due to charge differences. The unmutated S861/S864 REST 810-910 peptide (FIG. 3B, lane 1) migrated predominantly as two distinct bands that were not present upon treatment with lambda phosphatase (FIG. 3B, lane 7). […] The identification of the doubly phosphorylated species was based upon the mobility of an unmutated peptide containing unmutated S861/864 (FIG. 3B, lane 2, S856A), which was not present in samples expressing peptides containing S861A or S864A single mutations (lanes 3 and 4, respectively).
Detection of in gel fluorescence on native 10.5%-14% acrylamide gels (Bio-Rad Cat #345-9949) was performed using the Typhoon imaging system by GE Healthcare Life Science.

[2] = tested on: MEK; test: Western blot of FLAG-REST protein levels in transfected HEK cells after MEK/ERK inhibitor; type: cell-based, Human; details: HEK cells transfected with FLAG-REST cDNA, PD184352 or vehicle for 30 min
Description: To provide further support for this, unmutated REST (810-910) reporter cDNA was transfected into HEK cells and the peptide expressed in the presence and absence of the MEK/ERK inhibitor PD184352. Treatment with PD184352 caused a modest loss from the band at the position representing unmutated S861/S864 peptide and a reciprocal modest increase in the species representing unphosphorylated peptide (FIG. 5C). […] Accordingly, HEK cells transfected with FLAG-REST cDNA were treated with PD184352 for 30 min and the extracts were analyzed by Western blot.
(§1) Whole cell lysates were prepared and immunoprecipitated following the procedures in Ballas N et al, 2001 supra and Nesti E et al, Mol Biol Cell 15, 4073-4088 (2004); incorporated by reference herein. Western blots were performed by standard procedures using antibodies described below and analyzed using anti IgG conjugated to infrared dyes (ThermoFisher) on an Odyssey® infrared fluorescence imager (LiCor). For detecting phosphorylated REST at S861/S864, cell extracts were prepared lacking phosphatase inhibitors. For phosphatase treatment, 75 μg of total protein was treated with 600 U lambda phosphatase (New England Biolabs) or with buffer alone at 30° C. for 1 h, according to the manufacturer's protocol. […] Infrared fluorescence was detected on the Odyssey® imager (LiCor) in the 700 nm channel. […]

[3] = target: T1, Pin1 (Homo sapiens, UniProt Q13526); test: Co-immunoprecipitation of GST-βTrCP with FLAG-REST in HEK293T cells after Pin1 inhibition; type: cell-based; details: FLAG-REST and GST-βTrCP 48 h, PiB 7.5 h and MG132 4 h
T1 construct: endogenous in cells; host or cells: HEK293T
Description: HEK293T cells were transfected with FLAG-REST (unmutated or S861A/S864A) and GST-βTrCP for 48 h prior to treatment with PiB for 7.5 h and MG132 for 4 h, and then immunoprecipitated. Western blots were probed with anti-FLAG or anti-GST.
(§2) HEK293T cells were transfected using Lipofectamine 2000 (Life Technologies) following the manufacturer's instructions. PC12 tet, PC12 tet-on FLAG-REST, and HEK293T cell lines were maintained as described in Ballas N et al 2001 supra. Neurospheres were isolated from E12.5 mouse cortices and cultured as described in Reynolds B A and Weiss S, Science 255, 1707-1710 (1992); incorporated by reference herein in neurobasal media supplemented with 2 mM L-glutamine, 100 U/mL penicillin, […] streptomycin, B27 supplement, 20 ng/mL EGF, and 10 ng/mL FGF-2, all from Life Technologies. Neurospheres were passaged every 3-4 days using Accutase® (Sigma). […]
(§3) Whole cell lysates were prepared and immunoprecipitated following the procedures in Ballas N et al, 2001 supra and Nesti E et al, Mol Biol Cell 15, 4073-4088 (2004); incorporated by reference herein. Western blots were performed by standard procedures using antibodies described below and analyzed using anti IgG conjugated to infrared dyes (ThermoFisher) on an Odyssey® infrared fluorescence imager (LiCor). […] Infrared fluorescence was detected on the Odyssey® imager (LiCor) in the 700 nm channel. […]

[4] = target: T2, Pin1 (Rattus norvegicus, UniProt A0ABK0LFD7); test: Western blot of FLAG-REST protein levels in PC12 tet-on FLAG-REST cells treated with Pin1 inhibitor; type: cell-based; details: PC12 tet-on FLAG-REST cells induced 24 h with doxycycline, PiB or vehicle for 7.5 h
T2 construct: endogenous in cells; host or cells: PC12 tet-on FLAG-REST cells
Description: PC12 tet-on FLAG-REST cells were induced 24 h with doxycycline, treated with PiB or vehicle for 7.5 h, and then extracted for analysis. Blots were probed with anti-FLAG (REST) and α-tubulin (loading control).
as §2, §3

[5] = tested on: endogenous REST protein; test: Western blot of endogenous REST protein levels in transfected E12.5 neurospheres; type: cell-based; details: E12.5 mouse cortical neurospheres after transfection; MG132 4 h; compared to control peptides
Description: FIG. 7B is an image of a Western blot showing endogenous REST protein levels in E12.5 neurospheres after transfection. Lane 1, empty vector; lane 2, control (595-694) peptide; lane 3, REST(810-910) S861/864A peptide; lane 4, REST(810-910) WT peptide; lane 5, empty vector with MG132 treated for 4 h. The blot was probed with anti-mouse-REST antibody and anti-tubulin (loading control) antibodies.
There is a significant difference between REST (810-910) compared to control (595-694) peptide (n=5, p=0.0021) and REST(810-910) compared to S861/864A REST(810-910) (n=5, p=0.046). The difference between MG132 and REST(810-910) is not significant (n=5, p=0.7996, Sidak's multiple comparison test, error bars represent 95% confidence interval).
The Examples above used the REST (810-910) reporter as a surrogate substrate for signaling molecules that target S861/S864 on full-length REST. […]
as §3

[6] = tested on: endogenous REST protein; test: Western blot of endogenous REST protein after transfection of CTDSP1 cDNA into HEK293T cells; type: cell-based, Human; details: HEK293T cells transfected with CTDSP1 cDNA
Description: FIG. 6D is an image of a Western blot analysis showing stabilized endogenous REST protein after transfection of CTDSP1 cDNA into HEK293T cells. α-tubulin is the loading control.
Using a REST phospho-specific polyclonal antibody, it was shown that exogenously expressed FLAG-CTDSP1 dephosphorylated these sites in full-length REST (FIG. 6B). Dephosphorylation by CTDSP1 was also observed in the REST reporter peptides as detected by in-gel fluorescence (FIG. 6C).
as §1

T2 sequence (A0ABK0LFD7 1-162): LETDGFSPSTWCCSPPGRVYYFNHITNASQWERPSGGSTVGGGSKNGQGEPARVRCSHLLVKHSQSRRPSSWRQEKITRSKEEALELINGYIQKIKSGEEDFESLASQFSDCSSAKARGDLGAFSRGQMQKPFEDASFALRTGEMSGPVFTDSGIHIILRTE
T1 sequence (Q13526 whole entry): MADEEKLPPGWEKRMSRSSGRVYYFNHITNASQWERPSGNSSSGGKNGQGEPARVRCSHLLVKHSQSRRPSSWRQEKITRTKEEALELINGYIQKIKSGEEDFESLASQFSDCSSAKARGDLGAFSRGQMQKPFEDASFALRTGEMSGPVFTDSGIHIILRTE

## O=C(NOCC1CC1)c1ccc(F)c(F)c1Nc1ccc(I)cc1Cl [PD184352]
[1]; HEK293T, PD184352 for 20 min, then recombinant EGF 10 min
  EGF-induced phosphorylation of S864 in REST (810-910)-GFP peptide: inhibited
[1]; REST (810-910) and GFP cDNA co-transfected into HEK cells, presence and absence of PD184352 (FIG. 10)
  Bands of doubly phosphorylated and non-phosphorylated REST (810-910) peptide: loss of band representing the doubly phosphorylated peptide
[1]; transfected HEK293T cells, 10 mM PD184352 for 4 hours
  S861/S864 phosphorylation in WT REST peptide: partial loss of S861/S864 phosphorylation
[2]
  FLAG-REST protein levels (Western blot): increased FLAG-REST protein levels

## EGF: recombinant EGF, upstream activator of ERK
[1]; HEK293T, recombinant EGF or vehicle 10 min
  Phosphorylation of S864 in REST (810-910)-GFP peptide (mobility shift): induces phosphorylation of S864

## CCOC(=O)CN1C(=O)c2ccc3c4c(ccc(c24)C1=O)C(=O)N(CC(=O)OCC)C3=O [PiB]
[3]
  βTrCP binding to REST (co-immunoprecipitation): diminished βTrCP binding to REST
[4]
  REST protein levels (anti-FLAG Western blot): higher REST protein levels

## CC(C)C[C@@H](C=O)NC(=O)[C@H](CC(C)C)NC(=O)[C@H](CC(C)C)NC(=O)OCc1ccccc1 [MG132] (Cbz-Leu-Leu-Leu-aldehyde)
[5]
  Endogenous full-length REST protein levels: did not stabilize the Rest protein further
[6]
  REST stabilization by CTDSP1, further effect of MG132: not increased further
